PMC11681865, “Oligomerization of protein arginine methyltransferase 1 and its functional impact on substrate arginine methylation” (The Journal of Biological Chemistry, 2024)
“Also recorded” adds a separate entry of the source.

Tests used:
R4 peptide = assay: MALDI-MS methylation activity of PRMT1-E153Q and PRMT1-WT on R4 peptide; format: biochemical; conditions: 2 μM PRMT1, 10 μM R4, 50 μM SAM, 30 min, room temperature
Description: (§1) It is known that PRMT1 can mono- and di-methylate an arginine residue on a protein or peptide substrate sequence, which results in monomethylarginine and asymmetric dimethylarginines product states. We attempted to examine whether oligomerization promotes PRMT1 ability to generate multiple methylation states in substrates. We used a synthetic peptide with four possible arginine methylation sites for PRMT1: the R4 peptide (Ac-[…]). R4 peptide, SAM, and different concentrations of PRMT1 were mixed in an aqueous buffer to allow methylation to occur, and then the mixture was subjected to MALDI-MS analysis. […] Our rationale is that, even though PRMT1-E153Q is catalytically dead, it can still interact with PRMT1-WT, resulting in hybrid higher oligomers. Therefore, presenting varying amounts of PRMT1-E153Q to a fixed concentration of PRMT1-WT would be another ideal way to test how oligomerization impacts on PRMT1 activity. […] Next, the concentration of PRMT1-WT was kept constant at 0.5 μM, but the concentration of PRMT1-E153Q was changed (Fig. 4). […] We further tested the methylation of the H4 peptide by 0.1 μM PRMT1-WT with the presence of PRMT1-E153Q.
The reaction buffer contained 50 mM Hepes pH 8.0, 10 mM NaCl, 0.5 mM EDTA, and 0.5 mM DTT. The reaction consisted of PRMT1 at various concentrations, 10 μM of R4 (Peptide Sequence: Ac-[…]), and 50 μM of SAM. […]

PRMT1 [1] = target: T1, PRMT1 (Homo sapiens, UniProt Q99873); assay: Dynamic light scattering of PRMT1 oligomers; format: physicochemical; conditions: no denaturant, 50 mM Hepes pH 8, 10 mM NaCl, 0.5 mM EDTA, 0.5 mM DTT, 25 °C, average of three runs of 25 scans
T1 construct: human PRMT1 protein (amino acid residue 11–353); His6; made in house
Description: Dynamic light scattering (DLS) uses a laser to measure the particle size distribution ([26]). The DLS can give information regarding the heterogeneity of protein in a sample ([27]). In the past, DLS was used to study microbial and viral structure ([28]). Nowadays, DLS is a popular method for studying nanoparticles, liposomes, and exosomes ([29], [30], [31], [32]). Researchers have also used DLS to study the protein folding of bovine serum albumin ([33]). Therefore, we envisage that the DLS can be utilized to analyze the size changes of PRMT1 oligomeric compositions in an aqueous solution. We expect to see an increase in size with increasing protein concentrations. The prepared PRMT1 protein at varied concentrations was allowed to incubate in the aqueous buffer for equilibrium on ice for 10 min. The protein solution was filtered with 0.2-micron filter to remove any big interfering particles. The protein size was analyzed using a Malvern Zetasizer instrument. We took an average of three runs with about 25 scans each time to evaluate the data. […] Guanidine hydrochloride is a popular protein denaturant ([34]). […] As a negative control, we incubated PRMT1 in the presence of 6 M guanidine hydrochloride to disrupt oligomer formation. […] A literature reported that guanidine thiocyanate is a stronger denaturant than guanidine hydrochloride ([35]).
Figure 2 Oligomerization of PRMT1 detection by dynamic light scattering. Various concentrations of PRMT1 were incubated on ice for 10 min, then filtered by 0.2-micron syringe filter and collected data from the DLS. The top line with black circle indicates PRMT1 without denaturant. The open triangle and hexagon lines indicated PRMT1 oligomeric structure disrupted by 6 M guanidine hydrochloride and 5 M guanidine thiocyanate, respectively.
Indicated concentrations of PRMT1 were incubated for 10 min on ice with buffer (50 mM Hepes pH 8, 10 mM NaCl, 0.5 mM EDTA, 0.5 mM DTT) and filtered through the 0.22 μm syringe filter. For the experiment to disrupt the oligomer formation, 6 M of guanidine hydrochloride or 5 M of guanidine thiocyanate was added to the reaction. The samples were injected into the 1 ml disposable cuvette and measured by Zetasizer Nano ZS (Malvern Instruments) at 25 °C. Three measurements of 25 scans each were collected to average. The data was analyzed by the Malvern Zetasizer software v7.10.

[2] = tested on: PRMT1-WT / PRMT1-E153Q oligomers; assay: MALDI-MS methylation states of R4 peptide by PRMT1-WT with added PRMT1-E153Q; format: biochemical, human; conditions: 0.5 μM PRMT1-WT, 0-2 μM PRMT1-E153Q
Description: as §1
Figure 4 Determine the methylation state of R4 peptide by PRMT1 and PRMT1-E153Q oligomers formation. PRMT1 and PRMT1-E153Q was incubated on ice for 20 min before the addition of 10 μM R4 and 50 μM of SAM. […]

PRMT1-WT = target: T2, PRMT1-WT (Homo sapiens, UniProt Q99873); assay: Radiometric P81 filter-binding assay, PRMT1-WT concentration dependence; format: biochemical; conditions: 50 μM peptide, 2 μM [3H]-SAM and 48 μM SAM, 30 min, room temperature, pH 8.0
T2 construct: His-MBP (N, cleaved yes); made in house; host or cells: Escherichia coli BL21 (DE3) RIPL
Description: We used the phosphocellulose P81 filter paper–binding assay to measure the catalytic activity of PRMT1 at different concentrations on individual peptides. Each reaction mixture was composed of PRMT1-WT at varied concentrations, at fixed concentrations of SAM and peptide. The reaction mixture was quenched with isopropanol, transferred to the P81 filter paper, and washed with sodium bicarbonate buffer (pH 9). […] The measured count-per-minute (CPM) values correlated directly with the amounts of methylated peptide products. In a typical enzymatic catalysis, the product should be formed linearly as a function of enzyme concentration.
Various concentrations of PRMT1-WT were incubated with radioactive 2 μM [3H]-SAM and 48 μM SAM and 50 μM of indicated peptides for 30 min. The reaction was quenched with 100% isopropanol.
The reaction buffer consisted of 50 mM Hepes pH 8.0, 10 mM NaCl, 0.5 mM EDTA, and 0.5 mM DTT. The reaction was incubated at room temperature for 30 min after being initiated with ^3H-SAM SAM. An equal amount of 100% isopropanol to the total reaction volume was used to quench the reaction. The reaction liquid was transferred onto the phosphocellulose P81 filter paper (1.1 cm × 2 cm, Protein Chemistry & Metabolism Unit at St Vincent's Institute of Medical Research). The P81 filter papers containing the samples were left at room temperature for 30 min to airdry. […]

PRMT1 [3] = target: T1, PRMT1; assay: MALDI-MS methylation states of R4 peptide by PRMT1-WT; format: biochemical; conditions: 0.5 μM vs 1 μM PRMT1, 10 μM R4, 50 μM SAM, 30 min
Description: as §1
Figure 3 Determine the methylation state of R4 peptide by PRMT1 high-order oligomers. The reaction consisted of 0 μM (A), 0.5 μM (B), 1 μM (C) of PRMT1, 10 μM R4 peptide, and 50 μM SAM for 30 min at room temperature. […]

T1 sequence (Q99873 11-353 isoform Q99873-3): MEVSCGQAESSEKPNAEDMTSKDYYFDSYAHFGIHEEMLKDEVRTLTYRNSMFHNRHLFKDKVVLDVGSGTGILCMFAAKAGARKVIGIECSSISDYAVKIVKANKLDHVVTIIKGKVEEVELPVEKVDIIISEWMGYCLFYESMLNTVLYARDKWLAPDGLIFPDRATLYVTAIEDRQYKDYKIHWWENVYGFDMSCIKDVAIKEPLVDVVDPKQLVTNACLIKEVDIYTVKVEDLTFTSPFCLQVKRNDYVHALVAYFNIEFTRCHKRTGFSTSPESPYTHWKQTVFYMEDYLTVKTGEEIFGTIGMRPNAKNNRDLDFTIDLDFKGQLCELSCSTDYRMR
T2 sequence (Q99873 11-353 isoform Q99873-3): as above

Substance	number of methylation states in R4 substrate by PRMT1-WT (R4 peptide)	Z-average vs PRMT1 concentration (PRMT1 [1])	R4 methylation states vs PRMT1-E153Q concentration [2]	PRMT1 enzymatic activity (CPM) vs PRMT1 concentration (PRMT1-WT)	methylation states observed (PRMT1 [3])
protein arginine methyltransferase 1 [PRMT1]	up to six methylation states in the R4 substrate	increased gradually with the increase in PRMT1 concentration	–	–	–
Ac-GGRGGFGGRGGKGGRGGFGGRGGFG [R4 peptide, synthetic peptide with four possible arginine methylation sites for PRMT1]	–	–	the amounts of all of the different methylation states increased as more and more PRMT1-E153Q protein was added; also recorded: hexa- and hepta-methylated R4 peptides appeared when PRMT1-E153Q was increased up at 2 μM	increase as higher-order oligomeric structures were formed	multimethylated by PRMT1, from monomethylation to penta-methylation and hexa-methylation; also recorded: the hexa-methylation peak was only observed at 1 μM
